# How the values were obtained:
# PD-L1 = experiment: qRT-PCR expression of PD-L1 in HCC827-P cells; format: cell-based, human; details: 1 μM, 24 hrs
# Procedure: FIG. 11 depicts the effects of Reno647 on expression of PD-L1 in HCC827-P and HCC827-TR cells. HCC827-P and HCC827-TR cells at exponential growth phase were exposed to indicated concentration of Reno647 for 24 hrs. Total cellular RNA was extracted and cDNA was prepared followed by qRT-PCR using specific probes for PD-L1 and GAPDH (internal control) as described in the section of Materials and Methods. Tgene ΔCt value was normalized for GAPDH by calculating ΔCt=Ctgene−CtGAPDH per sample.
# HCC827 P or other indicated cells at exponential growth phase were treated with indicated concentrations of compounds for 24 hours. Total cellular RNA was prepared from lysed tumor cells using an RNA Purification kit (ThermoFisher Scientific). The first-strand of cDNA was synthesized using a High Capacity cDNA reverse transcription kit (ThermoFisher Scientific) in PTC-100 Peltier Thermal Cycler PCR. The resultant cDNA (0.5-1 μL) was used in a 10 μl reaction by using Taqman Universal PCR Master Mix (ThermoFisher Scientific). The pre-designed primers and probe were purchased from Life Technologies and used for qPCR. Human GAPDH was used as an internal control. qPCR was performed using Applied Biosystems StepOne and StepOnePlus Real-Time PCR Systems according manufacturer's instructions. An initial PCR denaturation step was performed at 95° C. for 20 seconds. […]
# [1] = tested on: HCC827 P and HCC827 TR cells; experiment: Reno647/Carboplatin combination, median effects (SRB, CalcuSyn); format: cell-based, human
# Procedure: As described in Example 2.1. Two cell lines, HCC827-P and HCC827-TR (Tarceva-resistant HCC727 cells-an EGFRi resistant cell line with MET amplification) (Wang, Pursell et al. 2013) were used in the combination study. Exponentially growing HC[…] and HCC827-TR cells were seeded into 96-wells dishes at density of 3,000 cells per well. Twenty-four hours later, the cells were exposed concurrently to serial dilution of Reno647 or Carboplatin or Camptothecin alone or in combination at a ratio of 1:50 with Carboplatin or at ratio 1:1 with Camptothecin for 3 days. Reno647 were concurrently and sequentially with paclitaxel (Taxol) at ratio of 200:1 for 6 days. For sequential exposure, the cells were treated with Reno647 for 3 days, after removal of the drug containing medium, the cells were treated with Taxol for additional 3 days, or the cells were treated by Taxol first followed by the treatment with Reno 647. After incubation for 6 days, the cell growth was measured by SRB as described previously in Example 2.1 section, and the percentages of inhibition (1-T/C) % were calculated, and data were analyzed by a PC program, CalcuSyn, Biosoft (edited by T.-C. Chou, Memorial Sloan-Kettering Cancer Center, New York, and M. P. Hayball, at Cambridge, UK, 1996). The computer-calculated combination index (CI) was used to judge the outcomes of a combination: […] It has long been accepted that chemotherapy provided some benefit for patients with non-small-cell lung cancer (NSCLC) in terms of quality of life and symptomatology as well as modest improvements in survival. […] Cell growth was determined by SRB as described above.
# HCC827TR16 = experiment: Cell growth inhibition by SRB method; format: cell-based; details: Homo sapiens, Tarceva-resistant line, 72 hrs exposure
# Excerpt: Six human cancer cell lines have been used to evaluate effects of the compounds on proliferation of cancer cells. These cell lines include HCC827-P (or HCC827 parent cells), human non-small lung cancer cells, Parent NSCLC HCC827 cell line (which harbors EGFR gene amplification, Exon 19 (E19) deletion, and Exon 21 mutation (Wang, Ramakrishnan et al. 2010), and is an EGFRi sensitive cell line (Kim, Kim et al. 2010)); HCC827-TR16 (Tarceva-resistant HCC727 cell line), HCC827-OR16 (AZD9291-resistant HCC727 cell line), LNCaP (human prostate cancer cells—a hormonal-therapy sensitive cell line (Wang, Liu et al. 1997)); 22RV1 (human prostate cancer cells—a hormonal-therapy resistant cell line (Sramkoski, Pretlow et al. 1999)); and ACHN (human renal adenocarcinoma cells (Park, Jung et al. 2003)). LNCaP cells and 22RV1 cells were purchased from the American Type Culture Collection (Rockville, Md.) and others were gifts of friends.
# To evaluate activities of new compounds on growth of EGFR-inhibitor-resistant cells, two EGFRi-resistant cell lines, i.e., HCC827-TR16 and HCC827-OR16 were established using a method described by Eberlein et al. (Eberlein, Stetson et al. 2015). […] Resistant cells were collected and stabilized after 5 weeks (cycle 5). […] The resistant cells were sorted using 96-well dishes by culturing cells with density of 0.1, 1, 10, and 100 cells per well.
# All cell lines were maintained in RPMI-1640 (GIBCO, Gaithersburg, Md.) with 10% heat-inactivated bovine serum (FBS) (Wang, Ossowski et al. 2004).
# Sulforhodamine B (SRB) was used to estimate cell growth as described previously (Skehan, Storeng et al. 1990). Briefly, cells grown exponentially were aliquoted into 96-well plates at a density of 2,500 to 5,000 cells/200 μl per well in RPMI 1640 medium containing 10% FBS. After twenty-four hours, the cells were exposed to indicated concentrations of tested compounds for 72 hrs or otherwise as indicated. The cells were then fixed with 10% trichloride acetic acid for 2 h at 4° C. The 10% trichloride acetic acid was removed, and the dishes were washed 5 times with tape water, and air-dried. The fixed and dried cells were then stained with 0.4% SRB in 1% acetic acid for 25 min, and the dishes were washed 5 times with 1% acetic acid and air-dried overnight. 200 μl of 10 mM of Tris buffer (pH 10.0) were added, and the dishes were rotated to completely dissolve the color. Absorbance at 570 nm, with a reference wavelength 690 nm, was measured on a 96-well microplate reader (SPECTRO Star^Nano, BMG Labtech). Mean, standard deviation (SD) and the percent of growth inhibition at each concentration point of the treatment were calculated. The percent of growth inhibition as defined as (1−T/C)×100 where T is the mean of the absorbance at 570 nm from the treatment, and C from control (drug vehicle only). IC50 was calculated using Sigma-plot software by regression of growth-concentration curve from each drug treatment.
smiles,measurement,setting,value
"C#Cc1cccc(Nc2ncnc3cc(OCCOC)c(NC(=O)c4ccc(F)c([N+](=O)[O-])c4)cc23)c1 [Reno647, 4-Fluoro-N-[4-(3-ethynyl-phenylamino)-7-(2-methoxy-ethoxy)-quinazolin-6-yl]-3-nitro-benzamide]",reduction of PD-L1 expression,PD-L1,Over 93%
same,dose reduction in combination,[1]; Reno647:Carboplatin 1:50,> 10 fold
same,"median effects, two drugs combined","[1]; Reno647:Carboplatin 1:50, concurrent, cell line not stated",0.067 µM
same,"median effects, drug alone","[1]; single agent, cell line not stated",0.697 µM
same,IC50,HCC827TR16,1300 nM

# Reference: patent publication US20190169134A1, “NOVEL CLASS OF QUINOLONE HETEROCYCLIC AROMATIC MOLECULES FOR CANCER TREATMENT” (RenoTarget Therapeutics, Inc., priority 2016, published 2019)
